In ChEMBL document CHEMBL1131763, “Thiazole-derived potent, highly bioavailable short duration growth hormone secretagogues” (Bioorg Med Chem Lett, 1999):
Calls of active or inactive are those of the source. The rule behind the calls is not given here.

Key:
Type in all cases: functional, organism-based
Rattus norvegicus = species on record: Rattus norvegicus; assay: Concentration required for determining half-maximal release of growth hormone(GH) in the rat pituitary cell assay; conditions: Pituitary gland cell
Canis familiaris [1] = assay: In vivo growth hormone(GH) release in beagles after intravenous administration; NA- Not active; conditions: Canis lupus familiaris
Canis familiaris [2] = assay: In vivo growth hormone(GH) release in beagles after intravenously administered dose of 0.01 mg/kg; 1/1; parameters: dose 0.01 mg/kg; conditions: Canis lupus familiaris
Canis familiaris [3] = assay: In vivo growth hormone(GH) release in beagles after orally administered dose of 0.25 mg/kg; 6/8; parameters: dose 0.25 mg/kg; conditions: Canis lupus familiaris
Canis familiaris [4] = assay: In vivo growth hormone(GH) release in beagles after orally administered dose of 0.5 mg/kg;8/8; parameters: dose 0.5 mg/kg; conditions: Canis lupus familiaris

| Structure (SMILES) | EC50 (Rattus norvegicus) [nM] | further results |
| --- | --- | --- |
| CCOC(=O)C1(Cc2ccncc2)CCCN(C(=O)[C@@H](Cc2c[nH]c3ccccc23)NC(=O)C(C)(C)N)C1 (stereo partly drawn) | 4.4 | – |
| CCOC(=O)C1(Cc2nccs2)CCCN(C(=O)[C@@H](Cc2c[nH]c3ccccc23)NC(=O)C(C)(C)N)C1 (stereo partly drawn) | 4.2 | – |
| CC(C)(N)C(=O)N[C@H](Cc1c[nH]c2ccccc12)C(=O)N1CCC[C@](Cc2ccccn2)(C(=O)O)C1 | 570 | – |
| CCOC(=O)C1(Cc2cncs2)CCCN(C(=O)[C@@H](Cc2c[nH]c3ccccc23)NC(=O)C(C)(C)N)C1 (stereo partly drawn) | 6.1 | Response (Canis familiaris [1]): inactive |
| CCOC(=O)[C@@]1(Cc2cscn2)CCCN(C(=O)[C@@H](Cc2c[nH]c3ccccc23)NC(=O)C(C)(C)N)C1 | 15 | – |
| CCOC(=O)[C@]1(Cc2cscn2)CCCN(C(=O)[C@@H](Cc2c[nH]c3ccccc23)NC(=O)C(C)(C)N)C1 | 0.5 | – |
| CCOC(=O)C1(Cc2cscn2)CCCN(C(=O)[C@@H](Cc2c[nH]c3ccccc23)NC(=O)C(C)(C)N)C1 (stereo partly drawn) | 1 | – |
| CCOC(=O)C1(Cc2ccccn2)CCCN(C(=O)[C@@H](Cc2c[nH]c3ccccc23)NC(=O)C(C)(C)N)C1 (stereo partly drawn) | 0.5 | – |
| CC(C)(N)C(=O)N[C@H](Cc1c[nH]c2ccccc12)C(=O)N1CCC[C@](Cc2ccccc2)(C(=O)O)C1 | 190 | – |
| CCOC(=O)[C@]1(Cc2ccccn2)CCCN(C(=O)[C@@H](Cc2c[nH]c3ccccc23)NC(=O)C(C)(C)N)C1 | 0.2 | – |
| CC(C)(N)C(=O)N[C@H](Cc1c[nH]c2ccccc12)C(=O)N1CCC[C@](Cc2cscn2)(C(=O)O)C1 | > 500 | – |
| CCOC(=O)C1(Cc2cccnc2)CCCN(C(=O)[C@@H](Cc2c[nH]c3ccccc23)NC(=O)C(C)(C)N)C1 (stereo partly drawn) | 2.2 | – |
| CCOC(=O)[C@@]1(Cc2ccccn2)CCCN(C(=O)[C@@H](Cc2c[nH]c3ccccc23)NC(=O)C(C)(C)N)C1 | 3 | – |
| CCOC(=O)[C@@]1(Cc2ccccc2)CCCN(C(=O)[C@@H](Cc2c[nH]c3ccccc23)NC(=O)C(C)(C)N)C1 | 1.6 | Response (Canis familiaris [2]): inactive; Response (Canis familiaris [3]): Partially active; Response (Canis familiaris [4]): Active |
